Measured values reported in patent US9612243B1, “Methods and compositions for targeted two-dimensional western blot analysis for early cancer detection and cancer diagnosis up to ten years in advance of clinical symptoms of malignant disease” (Mor-NuCo Enterprises, Inc., priority 2016, dated 2017).

Columns and labels:
[1] = molecular target: T1, ENOX2 (Homo sapiens, UniProt Q16206); experiment: ENOX2 activity versus NADH concentration, Lineweaver-Burke plot with and without antibody; assay type: biochemical; settings: FIG. 2
T1 sequence (Q16206 1-610): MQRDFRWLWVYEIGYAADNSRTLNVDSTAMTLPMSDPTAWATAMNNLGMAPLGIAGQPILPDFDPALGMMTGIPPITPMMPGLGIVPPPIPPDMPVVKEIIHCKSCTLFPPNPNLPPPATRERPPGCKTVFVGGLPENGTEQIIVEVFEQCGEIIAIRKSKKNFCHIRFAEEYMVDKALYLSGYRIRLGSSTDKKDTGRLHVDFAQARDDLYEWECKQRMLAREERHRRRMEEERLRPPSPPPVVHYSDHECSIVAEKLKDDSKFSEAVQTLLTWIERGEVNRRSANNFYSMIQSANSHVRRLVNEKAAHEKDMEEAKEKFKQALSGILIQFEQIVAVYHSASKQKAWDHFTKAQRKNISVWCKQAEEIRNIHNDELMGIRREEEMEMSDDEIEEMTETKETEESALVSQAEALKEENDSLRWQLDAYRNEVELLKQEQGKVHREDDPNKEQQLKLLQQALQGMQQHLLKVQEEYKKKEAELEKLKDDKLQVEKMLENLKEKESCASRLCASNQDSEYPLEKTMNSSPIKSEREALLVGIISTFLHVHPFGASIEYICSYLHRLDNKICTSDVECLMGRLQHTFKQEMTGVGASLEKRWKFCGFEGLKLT
Text: FIG. 2 is a graph that depicts the relationship of ENOX2 activity and concentration of NADH.

[2] = molecular target: T1, ENOX2; experiment: 2-D gel electrophoresis/western blot, incubation with 15 μM NADH compared to no NADH; settings: 15 μM NADH in the assay compared to no NADH, FIG. 1
Description: In order to maintain an active ENOX2 during western blotting with antibody, following blocking for 10 minutes with 1% milk and two rinses with TBST to remove excess milk, reduced pyridine nucleotides [NAD(P)H] were added at a concentration of 15 μM during incubation with the primary scFv antibody. NADH is preferred at a final concentration in the range of 10 μM. Incubation of the blot with antibody with or without shaking at any temperature between 4° C. and 40° C. for times of 1 to 16 hours depending on the concentration of NADH, the temperature and the antibody titer, preferably with incubation at 4° C. overnight (approximately 16 hours) with shaking.

[3] = test system: heavy (ca. 52 kDa) and light (ca. 25 kDa) immunoglobulin chain proteins; experiment: 2-D gel/western blot cross-reactivity with serum proteins; assay type: binding, human; settings: on some blots
Text: Separation in the first dimension was by isoelectric focusing over the pH range of 3 to 10 and separation in the second dimension was by 10 percent SDS-PAGE. Isoelectric points of the ENOX2 transcript variants were in the range of 3.2 to 6.3. The principal reactive proteins other than the ENOX2 forms were a 53 kDa isoelectric point pH 4.1, mostly phosphorylated alpha-fetuin (Labeled “R” in FIG. 8) which served as a convenient loading control and isoelectric point reference and a 79-85 kDa, isoelectric point pH 6.8 serotransferrin which served as a second point of reference for loading and as an isoelectric point reference. The two cross reactive reference proteins are present in a majority of sera and plasma of both cancer and non-cancer subjects.
For western blot analysis, 30 μL of sera was added to 120 μL of Rehydration Buffer (7M urea, 2 M thiourea, 2% (w/v) CHAPS [(3-[(3-cholamidopropyl)dimethylammonio]-1-propane-sulfonate), a nondenaturing zwitterionic detergent], 0.5% (w/v) ASB-14 (amidosulfobetaine-14, a zwitterionic detergent), 0.5% (v/v) ampholytes pH 3-10 (Bio-Rad), 0.5% (v/v) immobilized pH gradient (IPG) buffer pH 3-10 (Amersham-Pharmacia Biotech) and 65 mM dithiothreitol). The samples were quickly vortexed to mix sera with Rehydration Buffer. Four to six mg of protein were loaded for analysis. […] Quantitation utilized an algorithm developed for this purpose. […]

## NC(=O)C1=CN([C@@H]2O[C@H](COP(=O)(O)OP(=O)(O)OC[C@H]3O[C@@H](n4cnc5c(N)ncnc54)[C@H](O)[C@@H]3O)[C@@H](O)[C@H]2O)C=CC1 [NADH]
[1]
  NADH concentration at which maximum ENOX2 activity was achieved: about 500 μM
[2]
  increase in spot size and density of ENOX2: two-fold increase

B1: recombinant scFv: pan ENOX2 recombinant single chain variable region (scFv) antibody carrying an S tag, alkaline phosphatase linked (antibody, V domains shown)
VH: EVKLQESGTEVVKPGASVKLSCKASGYIFTSYDIDWVRQTPEQGLEWIGWIFPGEGSTEYNEKFKGRATLSVDKSSSTAYMELTRLTSEDSAVYFCARGDYYRRYFDLWGQGTTVTVSS
VL: ENVLTQSPAIMSASPGERVTMTCSASSSIRYIYWYQQKPGSSPRLLIYDTSNVAPGVPFRFSGSGSGTSYSLTINRMEAEDAATYYCQEWSGYPYTFGGGTKLELK
modifications: left off: things letters cannot carry; another chain or arm of the molecule; a dimerising Fc or GST; small tags and cut ends
notes: pan ENOX2 recombinant single chain variable region (scFv) antibody carrying an S tag, alkaline phosphatase linked
[3]
  cross-reactivity with immunoglobulin chain proteins: weakly cross-reactive
